From patent US8106055B2, “Substituted amide compounds” (Gruenenthal GmbH, priority 2007, dated 2012)

Legend:
human μ opiate receptor = target: T1, human μ opiate receptor (Homo sapiens, UniProt P35372); assay: Affinity for the human μ opiate receptor ([3H]-naloxone displacement, CHO-K1 receptor membrane preparation, SPA); assay type: binding; conditions: test concentration of 1 μM
T1 construct: purchased PerkinElmer Life Sciences, Zaventem, Belgium RB-HOM; host or cells: CHO-K1 cells (membrane preparation)
Procedure, shortened: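 SPA, CHO-K1 hμ membranes; 1 nmol/l [3H]-naloxone; Tris-HCl 50 mmol/l + 0.06% BSA; 90 min RT; NSB with 100 μmol/l naloxone; β-counting. Readout: % inhibition of specific binding at 1 μM test compound.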

[1] = target: T2, serotonin (5-HT) reuptake (Rattus norvegicus, UniProt P31652); assay: Inhibition of serotonin (5HT) reuptake in synaptosomes from rat brain; assay type: biochemical; conditions: test concentration of 10 μM
T2 construct: synaptosomes are freshly isolated from areas of the rat brain; from tissue; host or cells: rat brain synaptosomes (P2 fraction)
Procedure, shortened: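 Compounds screened at 10 μM and reported as percent inhibition of serotonin uptake. Uptake measured in a freshly prepared P2 synaptosomal fraction from rat brain.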

T1 sequence (P35372 whole entry): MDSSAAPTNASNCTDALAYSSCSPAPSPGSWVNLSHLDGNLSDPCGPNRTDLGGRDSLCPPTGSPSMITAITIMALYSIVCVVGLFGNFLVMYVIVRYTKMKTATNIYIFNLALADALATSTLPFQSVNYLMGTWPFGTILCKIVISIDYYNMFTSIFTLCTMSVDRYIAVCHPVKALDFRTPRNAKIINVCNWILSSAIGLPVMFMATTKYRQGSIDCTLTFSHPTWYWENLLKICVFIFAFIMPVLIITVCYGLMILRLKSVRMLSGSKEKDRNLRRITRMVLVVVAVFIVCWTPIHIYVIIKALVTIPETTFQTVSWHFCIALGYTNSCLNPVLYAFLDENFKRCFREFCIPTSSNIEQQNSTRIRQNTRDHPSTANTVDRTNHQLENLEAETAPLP
T2 sequence (P31652 whole entry): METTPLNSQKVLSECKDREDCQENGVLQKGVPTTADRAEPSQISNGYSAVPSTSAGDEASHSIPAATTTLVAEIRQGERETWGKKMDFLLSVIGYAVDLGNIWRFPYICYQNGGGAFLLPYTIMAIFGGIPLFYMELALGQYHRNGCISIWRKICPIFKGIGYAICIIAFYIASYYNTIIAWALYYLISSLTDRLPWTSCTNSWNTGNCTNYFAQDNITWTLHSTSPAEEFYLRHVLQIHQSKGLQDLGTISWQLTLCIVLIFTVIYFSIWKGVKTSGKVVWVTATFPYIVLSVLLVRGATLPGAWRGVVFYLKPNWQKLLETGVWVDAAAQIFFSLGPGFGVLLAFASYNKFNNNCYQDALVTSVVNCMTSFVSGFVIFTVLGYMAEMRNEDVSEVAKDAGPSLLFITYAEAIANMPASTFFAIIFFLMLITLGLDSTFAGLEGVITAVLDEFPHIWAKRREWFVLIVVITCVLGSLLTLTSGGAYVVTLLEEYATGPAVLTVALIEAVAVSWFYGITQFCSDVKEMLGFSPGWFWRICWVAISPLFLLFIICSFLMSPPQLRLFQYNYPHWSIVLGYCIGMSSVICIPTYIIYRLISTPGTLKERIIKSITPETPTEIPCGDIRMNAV

CN(C)C(c1cccc(F)c1)C1CCC(CNC(=O)COC2CCN(S(=O)(=O)c3ccccc3)CC2)CC1 (stereo not shown) [Example 477]
μ (binding on the μ opioid receptor, % inhibition) (human μ opiate receptor): 51%
5-HT (inhibition of reuptake of serotonin, % inhibition) [1]: 95%

CN(C)C(c1ccc(Cl)cc1)C1CCC(CNC(=O)COCCN(C)S(=O)(=O)c2ccc(Cl)cc2Cl)CC1 (stereo not shown) [Example 459]
μ (binding on the μ opioid receptor, % inhibition) (human μ opiate receptor): 36%
5-HT (inhibition of reuptake of serotonin, % inhibition) [1]: 68%

COc1cc(C)c(S(=O)(=O)N2CCC(OCC(=O)NCC3CCC(C(c4ccc(F)cc4)N(C)C)CC3)CC2)c(C)c1C (stereo not shown) [Example 527]
μ (binding on the μ opioid receptor, % inhibition) (human μ opiate receptor): 38%
5-HT (inhibition of reuptake of serotonin, % inhibition) [1]: 96%

COc1cc(C)c(S(=O)(=O)N(CCOCC(=O)NCC2CCC(C(CCc3ccccc3)N(C)C)CC2)Cc2ccccc2)c(C)c1 (stereo not shown) [Example 542]
μ (binding on the μ opioid receptor, % inhibition) (human μ opiate receptor): 33%
5-HT (inhibition of reuptake of serotonin, % inhibition) [1]: 87%

CN(C)C(CCc1ccccc1)C1CCC(CNC(=O)COCCN(C)S(=O)(=O)c2ccc(F)cc2)CC1 (stereo not shown) [Example 539]
μ (binding on the μ opioid receptor, % inhibition) (human μ opiate receptor): 32%
5-HT (inhibition of reuptake of serotonin, % inhibition) [1]: 102%

CN(C)C(CCc1ccccc1)C1CCC(CNC(=O)COC2CCCCC2N(C)S(=O)(=O)c2ccc(Cl)c(Cl)c2)CC1 (stereo not shown) [Example 451]
μ (binding on the μ opioid receptor, % inhibition) (human μ opiate receptor): 48%
5-HT (inhibition of reuptake of serotonin, % inhibition) [1]: 84%

Cc1ccc(S(=O)(=O)N2CCC(OCC(=O)NCCC3CCC(C(c4ccc(F)cc4)N(C)C)CC3)C2)cc1 (stereo not shown) [Example 491]
μ (binding on the μ opioid receptor, % inhibition) (human μ opiate receptor): 34%
5-HT (inhibition of reuptake of serotonin, % inhibition) [1]: 90%

Cc1cc(C)c(S(=O)(=O)N(C)CCOCC(=O)NC2CCC(C(c3ccc(F)cc3)N(C)C)CC2)c(C)c1 (stereo not shown) [Example 490]
μ (binding on the μ opioid receptor, % inhibition) (human μ opiate receptor): 42%
5-HT (inhibition of reuptake of serotonin, % inhibition) [1]: 86%

COc1ccc(S(=O)(=O)N2CCC(OCC(=O)NCC3CCC(C(c4ccc(F)cc4)N(C)C)CC3)C2)cc1OC (stereo not shown) [Example 497]
μ (binding on the μ opioid receptor, % inhibition) (human μ opiate receptor): 37%
5-HT (inhibition of reuptake of serotonin, % inhibition) [1]: 86%

COc1cc(C)c(S(=O)(=O)N2CCC(CCOCC(=O)NCC3CCC(C(CCc4ccccc4)N(C)C)CC3)CC2)c(C)c1C (stereo not shown) [Example 521]
μ (binding on the μ opioid receptor, % inhibition) (human μ opiate receptor): 39%
5-HT (inhibition of reuptake of serotonin, % inhibition) [1]: 89%

CN(C)C(c1ccc(F)cc1)C1CCC(CCNC(=O)COCCN(Cc2ccccc2)S(=O)(=O)c2ccccc2)CC1 (stereo not shown) [Example 489]
μ (binding on the μ opioid receptor, % inhibition) (human μ opiate receptor): 35%
5-HT (inhibition of reuptake of serotonin, % inhibition) [1]: 97%

COc1cc(C)c(S(=O)(=O)N2CCC(OCC(=O)NCC3CCC(C(c4ccc(Cl)cc4)N(C)C)CC3)CC2)c(C)c1C (stereo not shown) [Example 498]
μ (binding on the μ opioid receptor, % inhibition) (human μ opiate receptor): 36%
5-HT (inhibition of reuptake of serotonin, % inhibition) [1]: 88%

CN(C)C(CCc1ccccc1)C1CCC(CNC(=O)COCCN(C)S(=O)(=O)c2c(Cl)cc(Cl)cc2Cl)CC1 (stereo not shown) [Example 515]
μ (binding on the μ opioid receptor, % inhibition) (human μ opiate receptor): 42%
5-HT (inhibition of reuptake of serotonin, % inhibition) [1]: 97%

CN(C)C(CCc1ccccc1)C1CCC(CNC(=O)COCCN(C)S(=O)(=O)c2ccc(Cl)cc2Cl)CC1 (stereo not shown) [Example 513]
μ (binding on the μ opioid receptor, % inhibition) (human μ opiate receptor): 38%
5-HT (inhibition of reuptake of serotonin, % inhibition) [1]: 89%

COc1cc(C)c(S(=O)(=O)N2CCC(OCC(=O)NCC3CCC(C(CCc4ccccc4)N(C)C)CC3)C2)c(C)c1C (stereo not shown) [Example 503]
μ (binding on the μ opioid receptor, % inhibition) (human μ opiate receptor): 37%
5-HT (inhibition of reuptake of serotonin, % inhibition) [1]: 90%

CN(C)C(c1ccc(F)cc1)C1CCC(NC(=O)COCC2CCCN(S(=O)(=O)c3ccccc3)C2)CC1 (stereo not shown) [Example 478]
μ (binding on the μ opioid receptor, % inhibition) (human μ opiate receptor): 40%
5-HT (inhibition of reuptake of serotonin, % inhibition) [1]: 97%

COc1ccc(S(=O)(=O)N2CCCCC2COCC(=O)NC2CCC(C(c3ccc(F)cc3)N(C)C)CC2)cc1 (stereo not shown) [Example 450]
μ (binding on the μ opioid receptor, % inhibition) (human μ opiate receptor): 50%
5-HT (inhibition of reuptake of serotonin, % inhibition) [1]: 90%

CN(C)C(c1ccc(Cl)cc1)C1CCC(CCNC(=O)COCCC2CCN(S(=O)(=O)c3ccccc3)CC2)CC1 (stereo not shown) [Example 531]
μ (binding on the μ opioid receptor, % inhibition) (human μ opiate receptor): 23%
5-HT (inhibition of reuptake of serotonin, % inhibition) [1]: 98%

Cc1cc(C)c(S(=O)(=O)N2CCC(OCC(=O)NCC3CCC(C(CCc4ccccc4)N(C)C)CC3)C2)c(C)c1 (stereo not shown) [Example 475]
μ (binding on the μ opioid receptor, % inhibition) (human μ opiate receptor): 48%
5-HT (inhibition of reuptake of serotonin, % inhibition) [1]: 87%

COc1ccc(S(=O)(=O)N2CCCC2COCC(=O)NCC2CCC(C(c3ccc(F)cc3)N(C)C)CC2)cc1 (stereo not shown) [Example 511]
μ (binding on the μ opioid receptor, % inhibition) (human μ opiate receptor): 39%
5-HT (inhibition of reuptake of serotonin, % inhibition) [1]: 98%

COc1cc(C)c(S(=O)(=O)N2CCCC(OCC(=O)NCCC3CCC(C(c4ccc(F)cc4)N(C)C)CC3)C2)c(C)c1C (stereo not shown) [Example 468]
μ (binding on the μ opioid receptor, % inhibition) (human μ opiate receptor): 53%
5-HT (inhibition of reuptake of serotonin, % inhibition) [1]: 95%

CN(C)C(c1ccccc1)C1CCC(CNC(=O)COCCC2CCN(S(=O)(=O)c3ccccc3)CC2)CC1 (stereo not shown) [Example 507]
μ (binding on the μ opioid receptor, % inhibition) (human μ opiate receptor): 32%
5-HT (inhibition of reuptake of serotonin, % inhibition) [1]: 75%

COc1ccc(S(=O)(=O)N2CCCCC2COCC(=O)NCCC2CCC(C(c3ccc(F)cc3)N(C)C)CC2)cc1OC (stereo not shown) [Example 462]
μ (binding on the μ opioid receptor, % inhibition) (human μ opiate receptor): 51%
5-HT (inhibition of reuptake of serotonin, % inhibition) [1]: 90%

COc1ccc(S(=O)(=O)N2CCCCC2COCC(=O)NCC2CCC(C(CCc3ccccc3)N(C)C)CC2)cc1 (stereo not shown) [Example 469]
μ (binding on the μ opioid receptor, % inhibition) (human μ opiate receptor): 50%
5-HT (inhibition of reuptake of serotonin, % inhibition) [1]: 87%

COc1cc(C)c(S(=O)(=O)N2CCC(OCC(=O)NCCC3CCC(C(c4ccc(F)cc4)N(C)C)CC3)C2)c(C)c1C (stereo not shown) [Example 467]
μ (binding on the μ opioid receptor, % inhibition) (human μ opiate receptor): 40%
5-HT (inhibition of reuptake of serotonin, % inhibition) [1]: 95%

COc1cc(C)c(S(=O)(=O)N2CCC(OCC(=O)NCCC3CCC(C(c4ccc(Cl)cc4)N(C)C)CC3)CC2)c(C)c1C (stereo not shown) [Example 472]
μ (binding on the μ opioid receptor, % inhibition) (human μ opiate receptor): 44%
5-HT (inhibition of reuptake of serotonin, % inhibition) [1]: 95%

COc1ccc(S(=O)(=O)N2CCCCC2COCC(=O)NCCC2CCC(C(c3ccc(F)cc3)N(C)C)CC2)c(OC)c1 (stereo not shown) [Example 500]
μ (binding on the μ opioid receptor, % inhibition) (human μ opiate receptor): 43%
5-HT (inhibition of reuptake of serotonin, % inhibition) [1]: 90%

Cc1cc(C)c(S(=O)(=O)N2CCC(OCC(=O)NCCC3CCC(C(c4ccc(Cl)cc4)N(C)C)CC3)C2)c(C)c1 (stereo not shown) [Example 506]
μ (binding on the μ opioid receptor, % inhibition) (human μ opiate receptor): 42%
5-HT (inhibition of reuptake of serotonin, % inhibition) [1]: 86%

CN(C)C(c1ccc(F)cc1)C1CCC(NC(=O)COC2CCN(S(=O)(=O)c3ccccc3)C2)CC1 (stereo not shown) [Example 463]
μ (binding on the μ opioid receptor, % inhibition) (human μ opiate receptor): 38%
5-HT (inhibition of reuptake of serotonin, % inhibition) [1]: 97%
